The term Ki denotes a dissociation constant, usually derived from enzyme kinetics or from competition with a known ligand. A lower Ki goes with higher affinity.

Molecules are shown by their SMILES. Read-outs that look alike come from different tables or passages of the source.

Data on twelve molecules can be found in patent US8338472B2, “Hexahydrocyclopentyl[F]indazole carboxamides and derivatives thereof as selective glucocorticoid receptor modulators” (Merck Sharp & Dohme Corp., priority 2008, dated 2012).

For one test, the target named is T1, Glucocorticoid Receptor (Homo sapiens, UniProt P04150).
T1 construct: These cells express large amount of the GR and are very responsive to GC treatment; endogenous in cells; host or cells: A549 cells transiently transfected with the MMTV-LUC reporter
T1 sequence (P04150 1-777): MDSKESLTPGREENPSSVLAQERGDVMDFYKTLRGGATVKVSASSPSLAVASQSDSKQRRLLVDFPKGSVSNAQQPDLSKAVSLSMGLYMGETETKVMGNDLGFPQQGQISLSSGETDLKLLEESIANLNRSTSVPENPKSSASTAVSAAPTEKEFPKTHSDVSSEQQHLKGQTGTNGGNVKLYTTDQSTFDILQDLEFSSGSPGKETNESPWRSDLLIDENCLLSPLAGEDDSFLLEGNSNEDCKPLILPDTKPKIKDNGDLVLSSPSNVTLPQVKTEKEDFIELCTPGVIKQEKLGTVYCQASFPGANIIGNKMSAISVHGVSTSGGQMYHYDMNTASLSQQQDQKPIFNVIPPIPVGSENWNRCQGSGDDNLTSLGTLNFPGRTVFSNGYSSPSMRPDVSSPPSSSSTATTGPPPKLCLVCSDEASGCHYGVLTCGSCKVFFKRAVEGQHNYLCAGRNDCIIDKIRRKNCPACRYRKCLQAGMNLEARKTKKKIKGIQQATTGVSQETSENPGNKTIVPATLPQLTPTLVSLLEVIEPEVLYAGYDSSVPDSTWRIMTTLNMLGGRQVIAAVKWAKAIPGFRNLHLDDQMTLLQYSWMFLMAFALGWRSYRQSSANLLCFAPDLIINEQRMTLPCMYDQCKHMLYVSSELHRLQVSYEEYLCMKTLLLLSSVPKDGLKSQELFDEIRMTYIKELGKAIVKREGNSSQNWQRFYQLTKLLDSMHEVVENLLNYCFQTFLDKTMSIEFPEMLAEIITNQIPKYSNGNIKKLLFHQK
The test can be described thus: Trans-Activation Modulation of Glucocorticoid Receptor (GRAMMER), MMTV-LUC reporter gene in A549 cells. The class given is cell-based. The note with it: Table 1; for Emax: A549, A549 cells, read-out: Transactivation A549 Cells GRAMMER Emax; for Emax / Transactivation A549 Cells GRAMMER Emax: Emax relative to 300 nM dexamethasone; for EC50: inflection point, read-out: Transactivation A549 Cells GRAMMER IP; for EC50 / Transactivation A549 Cells GRAMMER Emax: A549 cells. The gist of the method: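 Luciferase from a transiently transfected MMTV-LUC reporter was measured after 24 h compound exposure (≤1% DMSO) in A549 or MDA-MB-453 cells. For antagonism, the decrease of 10 nM dexamethasone-induced signal was calculated. For agonism, Emax was referenced to 300 nM dexamethasone.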
(Reporter assays use an easily measured gene product as a stand-in for the process of interest.)

Test [1] concerns the target T2, glucocorticoid receptor (GR) (Homo sapiens, UniProt P04150).
T2 sequence (P04150 1-777): T1 sequence (P04150 1-777)
The test can be described thus: Ligand binding assay (GR BIND), 3H-dexamethasone displacement in MDA-MB-453 cell lysate. The following applies: GR BIND Ki, Table 1.

Another test concerns the target T3, human GR (Homo sapiens, UniProt P04150).
T3 construct: U937 cells contain an endogenous glucocorticoid receptor (GR); endogenous in cells; host or cells: U937 cells stably transfected with the TNF-alpha promoter/beta-lactamase reporter
T3 sequence (P04150 1-777): T1 sequence (P04150 1-777)
The test can be described thus: Transrepression Assay (GITAR), TNFα-β-lactamase reporter gene in U937 cells. The class given is cell-based. The following applies: for GITAR Greater than by GRAMMER % SEP: GITAR Emax minus GRAMMER Emax; for EC50: inflection point, read-out: Transrepression U937 Cells GITAR IP; for EC50 / Transrepression U937 Cells GITAR Emax: U937 cells. The gist of the method: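 Repression of PMA (5 ng/ml final)/LPS (100 ng/ml final)-induced TNF-α promoter activity, read as β-lactamase cleavage of CCF2-AM, in stably transfected U937 cells expressing native GR. Compound added 30-45 min before stimulation, overnight (~18 hr) 37° C; normalized to 100 nM dexamethasone (100%).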

Setting [2] is: U-937, U937 cells, activity repressed by 100 nM dexamethasone = 100%, Table 1, read-out: Transrepression U937 Cells GITAR Emax.
The mark [3] stands for this setting: U-937, text statement, 100 nM dexamethasone = 100%, read-out: maximal activity in the transrepression assay (GITAR).
The mark [4] stands for this setting: activity repressed by 100 nM dexamethasone = 100%, Table 1.

For the molecule `CCCN(CC1CCCO1)C(=O)[C@H]1CCC2=Cc3c(cnn3-c3ccc(F)cc3)C[C@@]21C` (stereo partly drawn) [Compound 62, (4αR,5S)-1-(4-fluorophenyl)-4α-methyl-N-propyl-N-(tetrahydrofuran-2-ylmethyl)-1,4,4α,5,6,7-hexahydrocyclopenta[f]indazole-5-carboxamide], the figures for the Emax at Glucocorticoid Receptor, at human GR (setting [2]) and on human GR (setting [3]) were 18%, 41.5% and over 5%, respectively. The figures for the EC50 on Glucocorticoid Receptor and at human GR (Table 1) were 602 nM and 688 nM, respectively. Also, affinity in test [1] was put at a Ki of 6.9 nM. For the same molecule, the “GITAR Greater than by GRAMMER % SEP” value at human GR (Table 1) worked out at 23.5%.

As to `CCCN(CC1CCCO1)C(=O)[C@H]1CCC2=Cc3c(cnn3-c3ccc(F)cc3)C[C@@]21C` (stereo partly drawn) [Compound 63, (4αR,5S)-1-(4-fluorophenyl)-4α-methyl-N-propyl-N-(tetrahydrofuran-2-ylmethyl)-1,4,4α,5,6,7-hexahydrocyclopenta[f]indazole-5-carboxamide], at Glucocorticoid Receptor, the “Transactivation A549 Cells GRAMMER Emax” value turned out to be 28.3% and the EC50 amounted to 725 nM. The molecule further returned a Ki in test [1] of 6 nM. For the same molecule, at human GR (Table 1), the “GITAR Greater than by GRAMMER % SEP” value was found to be 17.6% and the EC50 was 713 nM. Also, the “Transrepression U937 Cells GITAR Emax” value at human GR (setting [4]) was 45.9%.

As for `C[C@]12Cc3cnn(-c4ccc(F)cc4)c3C=C1CC[C@@H]2C(=O)N(CC1CCC1)CC1CCCO1` (stereo partly drawn) [Compound 64, (4αR,5S)-N-(cyclobutylmethyl)-1-(4-fluorophenyl)-4α-methyl-N-(tetrahydrofuran-2-ylmethyl)-1,4,4α,5,6,7-hexahydrocyclopenta[f]indazole-5-carboxamide], the results for the Emax on Glucocorticoid Receptor, at human GR (setting [2]) and at human GR (setting [3]) were 27.1%, 36.6% and over 5%, respectively. Also, the EC50 stood at 674 nM at Glucocorticoid Receptor and 479 nM on human GR (Table 1). For the same molecule, the Ki in test [1] turned out to be 1.9 nM. The “GITAR Greater than by GRAMMER % SEP” value at human GR (Table 1) is on record as 9.5%.

Turning to `CCCN(C[C@H](C)O)C(=O)[C@H]1CCC2=Cc3c(cnn3-c3ccc(F)cc3)C[C@@]21C` [Compound 65, (4αR,5S)-1-4-(4-fluorophenyl)-N-[(2S)-2-hydroxypropyl]-4α-methyl-N-propyl-1,4,4α,5,6,7-hexahydrocyclopenta[f]indazole-5-carboxamide], the Emax was 72.8% at Glucocorticoid Receptor, 81.2% on human GR (setting [2]) and over 5% on human GR (setting [3]). The EC50 on Glucocorticoid Receptor was found to be 431 nM; at human GR (Table 1) it was 424 nM. The same molecule displayed a Ki in test [1] of 4.7 nM. Moreover, the “GITAR Greater than by GRAMMER % SEP” value on human GR (Table 1) is listed as 8.4%.

Take `CC(C)CN(C[C@H](C)O)C(=O)[C@H]1CCC2=Cc3c(cnn3-c3ccc(F)cc3)C[C@@]21C` [Compound 66, (4αR,5S)-1-(4-fluorophenyl)-N-[(2S)-2-hydroxypropyl]-N-isobutyl-4α-methyl-1,4,4α,5,6,7-hexahydrocyclopenta[f]indazole-5-carboxamide]: the figures for the Emax at Glucocorticoid Receptor, at human GR (setting [2]) and on human GR (setting [3]) were 67.6%, 78.1% and over 5%, respectively. Moreover, the EC50 at Glucocorticoid Receptor came to 613 nM; at human GR (Table 1), 685 nM. In test [1], this molecule yielded a Ki of 8.7 nM. Besides, the “GITAR Greater than by GRAMMER % SEP” value at human GR (Table 1) is 10.5%.

As for `CC(C)CN(C[C@@H](C)O)C(=O)[C@H]1CCC2=Cc3c(cnn3-c3ccc(F)cc3)C[C@@]21C` [Compound 67, (4αR,5S)-1-(4-fluorophenyl)-N-[(2R)-2-hydroxypropyl]-N-isobutyl-4α-methyl-1,4,4α,5,6,7-hexahydrocyclopenta[f]indazole-5-carboxamide], the Emax at Glucocorticoid Receptor was 67%; at human GR (setting [2]), 76.9%; on human GR (setting [3]), over 5%. Moreover, the EC50 amounted to 725 nM on Glucocorticoid Receptor and 558 nM on human GR (Table 1). In addition, affinity in test [1] was put at a Ki of 5.1 nM. Also, the “GITAR Greater than by GRAMMER % SEP” value at human GR (Table 1) was found to be 9.9%.

In the case of `C[C@]12Cc3cnn(-c4ccc(F)cc4)c3C=C1CC[C@@H]2C(=O)N(CCO)c1ccccc1` [Compound 68, (4αR,5S)-1-(4-fluorophenyl)-N-(2-hydroxyethyl)-4α-methyl-N-phenyl-1,4,4α,5,6,7-hexahydrocyclopenta[f]indazole-5-carboxamide], the results for the Emax at Glucocorticoid Receptor, at human GR (setting [2]) and on human GR (setting [3]) were 3.8%, 18.2% and over 5%, respectively. Further, the EC50 at Glucocorticoid Receptor is 128 nM; at human GR (Table 1), 1020 nM. This molecule gave a Ki in test [1] of 3.8 nM. Moreover, at human GR (Table 1), the “GITAR Greater than by GRAMMER % SEP” value turned out to be 14.4%.

With `C[C@H](O)CN(CCc1ccccc1F)C(=O)[C@H]1CCC2=Cc3c(cnn3-c3ccc(F)cc3)C[C@@]21C` [Compound 69, (4αR,5S)-1-(4-fluorophenyl)-N-[2-(2-fluorophenyl)ethyl]-N-[(2S)-2-hydroxypropyl]-4α-methyl-1,4,4α,5,6,7-hexahydrocyclopenta[f]indazole-5-carboxamide], the Emax is 21.9% at Glucocorticoid Receptor, 64.4% on human GR (setting [2]) and over 5% on human GR (setting [3]). The figures for the EC50 on Glucocorticoid Receptor and at human GR (Table 1) were 680 nM and 714 nM, respectively. The Ki in test [1] turned out to be 5.4 nM. At human GR (Table 1), the “GITAR Greater than by GRAMMER % SEP” value is 42.6%.

With `CN(CC(O)C(F)(F)F)C(=O)[C@H]1CCC2=Cc3c(cnn3-c3ccc(F)cc3)C[C@@]21C` (stereo partly drawn) [Compound 70, (4αR,5S)-1-(4-fluorophenyl)-N,4α-dimethyl-N-(3,3,3-trifluoro-2-hydroxypropyl)-1,4,4α,5,6,7-hexahydrocyclopenta[f]indazole-5-carboxamide], the Emax was 62.5% on Glucocorticoid Receptor, 86.9% at human GR (setting [2]) and over 5% at human GR (setting [3]). In addition, the figures for the EC50 at Glucocorticoid Receptor and at human GR (Table 1) were 231 nM and 276 nM, respectively. The affinity in test [1] corresponds to a Ki of 10.7 nM. Further, on human GR (Table 1), the “GITAR Greater than by GRAMMER % SEP” value is listed as 24.5%.

For `CCN(CC(O)C(F)(F)F)C(=O)[C@H]1CCC2=Cc3c(cnn3-c3ccc(F)cc3)C[C@@]21C` (stereo partly drawn) [Compound 71, (4αR,5S)-N-ethyl-1-(4-fluorophenyl)-4α-methyl-N-(3,3,3-trifluoro-2-hydroxypropyl)-1,4,4α,5,6,7-hexahydrocyclopenta[f]indazole-5-carboxamide], the Emax at Glucocorticoid Receptor is 71.7%; on human GR (setting [2]) it was 95.6%; on human GR (setting [3]), over 5%. The results for the EC50 at Glucocorticoid Receptor and at human GR (Table 1) were 151 nM and 85 nM, respectively. For the same molecule, in test [1], affinity was put at a Ki of 2.6 nM. Also, the “GITAR Greater than by GRAMMER % SEP” value on human GR (Table 1) stood at 24.0%.

Turning to `CCN(CC(O)C(F)(F)F)C(=O)[C@H]1CCC2=Cc3c(cnn3-c3ccc(F)cc3)C[C@@]21C` (stereo partly drawn) [Compound 72, (4αR,5S)-N-ethyl-1-(4-fluorophenyl)-4α-methyl-N-(3,3,3-trifluoro-2-hydroxypropyl)-1,4,4α,5,6,7-hexahydrocyclopenta[f]indazole-5-carboxamide], at Glucocorticoid Receptor, the “Transactivation A549 Cells GRAMMER Emax” value came out at 71.2% and the EC50 turned out to be 37 nM. Moreover, the affinity in test [1] corresponds to a Ki of 2.3 nM. For the same molecule, on human GR (Table 1), the “GITAR Greater than by GRAMMER % SEP” value is 19.6% and the EC50 was found to be 43.9 nM. The “Transrepression U937 Cells GITAR Emax” value at human GR (setting [4]) stood at 90.8%.

As for `C[C@H](O)CN(CCC(F)(F)F)C(=O)[C@H]1CCC2=Cc3c(cnn3-c3ccc(F)cc3)C[C@@]21C` [Compound 73, (4αR,5S)-1-(4-fluorophenyl)-N-[(2S)-2-hydroxypropyl]-4α-methyl-N-(3,3,3-trifluoropropyl)-1,4,4α,5,6,7-. hexahydrocyclopenta[f]indazole-5-carboxamide], the Emax is 71.1% on Glucocorticoid Receptor, 89.5% at human GR (setting [2]) and over 5% at human GR (setting [3]). Also, the EC50 at Glucocorticoid Receptor turned out to be 152 nM; at human GR (Table 1) it was 137 nM. For the same molecule, the affinity in test [1] corresponds to a Ki of 2.1 nM. The “GITAR Greater than by GRAMMER % SEP” value on human GR (Table 1) was determined as 18.4%.
